# Like-named read-outs stand apart in the source and are kept apart here.
# Key:
# [1] = tested on: methicillin resistant Staphylococcus aureus strains; assay type: cell-based; settings: clinically relevant methicillin resistant Staphylococcus aureus strains
# insect phenol-oxidases = experiment: Inhibition of insect phenol-oxidases; assay type: biochemical
# [2] = tested on: Staphylococcus aureus 15981; experiment: Disc diffusion (Kirby-Bauer), zone of inhibition; assay type: cell-based; settings: 500 μg/mL, '/' = no zone
# Description: (§1) E. coli DH5α, P. aeruginosa PA01 and the 53 S. aureus strains were recovered from frozen (−80° C.) glycerol (15% v/v) stocks on Lysogeny agar (LA)—Gram negative and trypticase soy agar (TSA)—plates at 37° C. for 24 hours. Single colonies were placed in either 3 mL Lysogeny broth (LB)—Gram negative or trypticase soy broth (TSB)—Gram positive and incubated at 37° C., 250 rpm for 18 hours.
# (§2) The antibiotic activity was determined using a Kirby-Bauer method according to Clinical Standard Laboratory Institute (CSLI) Guidelines (2017). Briefly, 180 μL of a 1 in 200 dilution (in LB or TSB) of overnight cultures of selected Gram negative and Gram positive bacteria were applied to an agar plate containing the solid growth medium, Mueller-Hinton agar (MHA). Sterile discs, inoculated with 50 μL of antibiotic, were first added to the agar plate before the plates were incubated for 24 hours at 37° C. Following incubation, the zone of inhibition (if it existed) was recorded.
# Escherichia coli DH5α = experiment: Disc diffusion (Kirby-Bauer), zone of inhibition; assay type: cell-based
# Description: as §1, §2
# MRSA 252 [3] = experiment: Disc diffusion (Kirby-Bauer), zone of inhibition; assay type: cell-based, Staphylococcus aureus; settings: 500 μg/mL, '/' = no zone; for zone of inhibition at 500 µg/mL: Staphylococcus aureus
# Description: as §1, §2
# MSSA 476 [4] = experiment: Disc diffusion (Kirby-Bauer), zone of inhibition; assay type: cell-based, Staphylococcus aureus; settings: 500 μg/mL, '/' = no zone; for zone of inhibition at 500 µg/mL: Staphylococcus aureus
# Description: as §1, §2
# MRSA 252 [5] = experiment: MIC, broth micro-dilution; assay type: cell-based, Staphylococcus aureus
# Description: as §1
# (§3) Antibiotic MIC's were determined by a broth micro-dilution method according to Clinical Standard Laboratory Institute (CSLI) Guidelines (2017). Briefly, 96-well microplates, each containing 195 μL of the 1:2 dilution antibiotic in TSB, were inoculated with 5 μL of overnight cultured bacteria, diluted to give a starting bacterial concentration of 5×10^5 CFU/mL. The optical density of each well inoculated was recorded every 12 minutes over an 18 hour period at 37° C. The data from this was plotted in OriginPro8 (OriginLab) and sigmoidal curves fitted using the dose response function. Fitted values for each curve were used to calculate the MIC.
# MSSA 476 [6] = experiment: MIC, broth micro-dilution; assay type: cell-based, Staphylococcus aureus
# Description: as §1, §3
# Galleria mellonella = experiment: Systemic toxicity, Galleria mellonella survival; settings: n = 10, injection of 500 μg/mL
# Description: Galleria mellonella wax worms purchased from www.livefoods.co.uk were inoculated with 10 μL of a series of dilutions of the antibiotics synthesised in-house. The antibiotic concentrations chosen for this study were the following: 1000 μg/mL, 500 μg/mL, 250 μg/mL, 125 μg/mL and 31.25 μg/mL. Each dilution was injected into 10 individual wax worms through their last pro-leg. The injected wax worms were stored at 25° C. for 5 days. The cytotoxicity was determined as the percentage survival rate of Galleria mellonella Wax worms after 5 days inoculation.
# [7] = tested on: Pseudomonas aeruginosa PA01; experiment: Disc diffusion (Kirby-Bauer), zone of inhibition; assay type: cell-based; settings: 500 μg/mL, '/' = no zone
# Description: as §1, §2
# [8] = tested on: MRSA 252, MSSA 476, S. aureus 15981, P. aeruginosa PA01 and E. coli DH5α; experiment: Disc diffusion primary screening, five strains (statements in words); assay type: cell-based; settings: 500 μg/mL
# Description: As such, the minimum inhibition concentration (MICs) of biologically active compounds were further assessed using the broth dilution method against the S. aureus strains; MRSA 252 and MSSA 476 (Table 1). The results of both assays enabled key structural elements and functional groups required for the compounds to retain their antibiotic activity to be identified.
# as §2
# [9] = Stability in the presence of glutathione (NMR); assay type: physicochemical; settings: up to 24 hours, DMSO-D6
# From the text: It is well known that compounds bearing an isocyanide group are usually highly reactive, capable of reacting with electrophiles, nucleophiles and radicals.^(30) As a result, it was important to identify any stability issues which might be encountered by the lead compounds, both in storage and in the presence of glutathione and cysteine. […] Another common feature of the lead compounds is the vinyl fragment. It was hypothesized that the presence of glutathione and cysteine found in eukaryotic cells could potentially interact with the electrophilic alkene group in the compounds, thus shutting down their antibiotic activity. To probe this potentially detrimental in vivo process, compound 39 was subjected to glutathione for up to 24 hours whilst compound 41 was added to cysteine for the same length of time.
# HEK293 cells = experiment: Cytotoxicity assay, resazurin (CO-ADD); settings: HEK 293
# Description: The cytotoxicity studies were performed by CO-ADD (The Community for Open Antimicrobial Drug Discovery), funded by the Wellcome trust (UK) and the University of Queensland, Australia.^(28) In this study, the compounds were screened against a human embryonic kidney cell line, HEK293, at a set concentration of 32 μg/mL.
# DMEM supplemented with 10% FBS was used as growth media and the cells were incubated together with the compounds for 20 hours at 37° C. in 5% CO2.
# Cytotoxicity (or cell viability) was measured by fluorescence, excitation: 560/10 nm, emission: 590/10 nm (F560/590), after addition of 5 μL of 25 μg/mL Resazurin (2.3 μg/mL final concentration) and after incubation for further 3 h at 37° C. in 5% CO2. The fluorescence intensity was measured using a Tecan M1000 Pro monochromator plate reader, using automatic gain calculation CC50 (concentration at 50% cytotoxicity) were calculated by curve fitting the inhibition values vs. log(concentration) using sigmoidal dose-response function, with variable fitting values for bottom, top and slope. The curve fitting was implemented using Pipeline Pilot's dose-response component.
# C. glabrata ATCC 90030 = experiment: Anti-fungal MIC (CO-ADD); assay type: cell-based; settings: Nakaseomyces glabratus, ATCC90030, read-out: MIC
# Description: (§4) Fungal strains were cultured for 3 days on Yeast Extract-Peptone Dextrose (YPD) agar at 30° C. A yeast suspension of 1×10^6 to 5×10^6 CFU/mL (as determined by OD530) was prepared from five colonies. […] All plates were covered and incubated at 35° C. for 36 hours without shaking. […] The absorbance was measured using a Biotek Multiflo Synergy HTX plate reader. In both cases, the percentage of growth inhibition was calculated for each well, using the negative control (media only) and positive control (fungi without inhibitors) on the same plate. […] Due to a higher variance in growth and inhibition, a lower threshold was applied to the data for C. neoformans. In addition, the maximal percentage of growth inhibition is reported as DMax, indicating any compounds with marginal activity.
# [10] = tested on: C. neoformans H99; ATCC 208821; experiment: Anti-fungal MIC (CO-ADD); assay type: cell-based; settings: Cryptococcus neoformans, ATCC208821, read-out: MIC
# Description: as §4
# C. tropicalis ATCC 750 = experiment: Anti-fungal MIC (CO-ADD); assay type: cell-based; settings: Candida tropicalis, ATCC750, read-out: MIC
# Description: as §4
# C. tropicalis ATCC 450 = experiment: Anti-fungal MIC (CO-ADD); assay type: cell-based; settings: Candida tropicalis, ATCC450, read-out: MIC
# Description: as §4
# [11] = tested on: C. deuterogattii ATCC 32609; experiment: Anti-fungal MIC (CO-ADD); assay type: cell-based; settings: read-out: MIC
# Description: as §4
# C. albicans ATCC 90028 = experiment: Anti-fungal MIC (CO-ADD); assay type: cell-based; settings: Candida albicans, ATCC90028, read-out: MIC
# Description: as §4
# red blood cells = experiment: Hemolysis assay (CO-ADD); assay type: cell-based; settings: 32 μg/mL highest concentration tested
# From the text: A problem often encountered by emerging drugs is hemolysis, also known as drug-induced immune hemolytic anemia.
# MRSA 252 [12] = experiment: Resistance testing by serial passaging; assay type: cell-based, S. aureus; settings: 18 serial passage cycles
# Description: Next a serial passage study was undertaken in order to elucidate the speed at which target bacteria might either evolve resistance or select for persister cells within that population following exposure to compound 36.
# For resistance development by serial passaging, 5 μL of overnight cultured MRSA 252 cells were added to individual wells in a 96-well plate containing 195 μL of TSB supplemented with a range of antibiotic concentrations and incubated at 37° C. for 18 hours. Ofloxacin served as a control. Wells where bacterial growth was visible after 18 hours were plated on TSA plates and incubated at 37° C. for a further 18 hours. Single colonies obtained from the overnight cultured bacteria were then inoculated into fresh TSB medium, incubated at 37° C. for 18 hours before being used in the next cycle of the resistance testing. This process continued for 18 cycles.
# Manduca sexta = experiment: Systemic toxicity, Manduca sexta survival and mass growth; assay type: in vivo; settings: 1% solution, by 48 hours
# From the text: The use of Galleria for evaluating systemic toxicity study provided a straightforward method for screening any immediate toxicity issues associated with the lead compounds. One problem encountered with this model is the complications of obtaining quantitative results since only live/dead outcomes can be recorded. As an alternative and quantitative approach for systemic toxicity, it was decided to use a new model using Manduca sexta as the subject, replacing the much smaller and difficult to handle, Galleria mellonella. The Manduca sexta assay allows for the mass change of the larvae to be measured over hours/days, thus giving information not only on survival but also on the organisms' fitness^(26) Promisingly, the 72 hour assay performed at concentrations of 1 mg/mL on the selected lead compounds gave identical results to those obtained using the Galleria infection model, indicating no apparent toxicity issues for the compounds. […] As a […] control, the Manduca were injected with a 1% solution of NaN3. […]
# […] The mass of each hornworm was measured before and up to 72 hours after injection at set 24 hour intervals. The systemic toxicity was determined as the percentage survival and mass growth relative to the positive control at the pre-determined set intervals.
molecule,measurement,setting,value
Byelyankacin,antibiotic activity (in words),[1],good antibiotic activity
same,inhibition of insect phenol-oxidases (in words),insect phenol-oxidases,inhibitor of insect phenol-oxidases
"[C-]#[N+]C=Cc1c[nH]c2ccccc12 [Compound 26, 3-(2-Isocyanovinyl)-1H-indole]",Zone of inhibition,[2]; Staphylococcus aureus 15981,22 mm
same,zone of inhibition at 500 µg/mL,Escherichia coli DH5α; Escherichia coli,20 mm
same,Zone of inhibition,MRSA 252 [3],20 mm
same,Zone of inhibition,MSSA 476 [4],20 mm
same,MIC,MRSA 252 [5],20 µg/mL
same,MIC,MSSA 476 [6],222 µg/mL
same,% survival after 5 days,Galleria mellonella,100%
[C-]#[N+]/C=C/c1ccccc1/C=C/c1ccncc1 [Compound 39],Zone of inhibition,[2]; Staphylococcus aureus 15981,26 mm
same,Zone of inhibition,"Escherichia coli DH5α; Escherichia coli DH5α, 500 μg/mL, '/' = no zone",12 mm
same,Zone of inhibition,[7],20 mm
same,antibiotic activity in disc diffusion assays (in words),[8],retaining its activity against the Gram negative P. aeruginosa and E. coli
same,Zone of inhibition,MRSA 252 [3],28 mm
same,Zone of inhibition,MSSA 476 [4],32 mm
same,MIC,MRSA 252 [5],12 µg/mL
same,MIC,MSSA 476 [6],15 µg/mL
same,structure after exposure to glutathione (NMR),[9],no change in the structure
"[C-]#[N+]C=Cc1c[nH]c2ccccc12 [Compound 25, 3-(2-Isocyanovinyl)-1H-indole]",zone of inhibition at 500 µg/mL,"[2]; Staphylococcus aureus, 15981, Staphylococcus aureus 15981",16 mm
same,zone of inhibition at 500 µg/mL,MRSA 252 [3]; MRSA,18 mm
same,zone of inhibition at 500 µg/mL,MSSA 476 [4]; MSSA,16 mm
same,MIC,MRSA 252 [5],61 µg/mL
same,MIC,"MSSA 476 [6]; Staphylococcus aureus, MSSA",166 µg/mL
same,% survival after 5 days,Galleria mellonella,90%
"[C-]#[N+]/C=C/c1ccccc1/C=C/c1ccccc1 [Compound 38, 1-((E)-2-Isocyanovinyl)-2-((E)-styryl)benzene]",zone of inhibition at 500 µg/mL,"[2]; Staphylococcus aureus 15981, read-out: Zone of inhibition",28 mm
same,zone of inhibition at 500 µg/mL,"Escherichia coli DH5α; Escherichia coli DH5α, 500 μg/mL, '/' = no zone, read-out: Zone of inhibition",28 mm
same,zone of inhibition at 500 µg/mL,[7],26 mm
same,antibiotic activity in disc diffusion assays (in words),[8],retained antibiotic activity
same,zone of inhibition at 500 µg/mL,MRSA 252 [3]; read-out: Zone of inhibition,30 mm
same,zone of inhibition at 500 µg/mL,MSSA 476 [4]; read-out: Zone of inhibition,30 mm
same,MIC,"MRSA 252 [5]; Staphylococcus aureus, read-out: MIC",5 µg/mL
same,MIC,"MSSA 476 [6]; Staphylococcus aureus, MSSA, read-out: MIC",3 µg/mL
same,Concentration toxic to HEK 293 cells,HEK293 cells,>32000 ng/mL
same,MIC,C. glabrata ATCC 90030,> 32 µg/mL
same,MIC,[10],4 µg/mL
same,MIC,C. tropicalis ATCC 750,8 to 16 µg/mL
same,MIC,C. tropicalis ATCC 450,2 µg/mL
same,MIC,[11],2 µg/mL
same,MIC,C. albicans ATCC 90028,2 to 4 µg/mL
same,Hemolytic activity (HC10),red blood cells,>32 µg/mL
"CC1COc2c(N3CCN(C)CC3)c(F)cc3c(=O)c(C(=O)O)cn1c23 (centres unmarked) [ofloxacin, reference compound]",increase in MIC after serial passage,MRSA 252 [12],greater than 10 fold
"[N-]=[N+]=[N-].[Na+] [Negative Control (NaN3), NaN3, reference compound]",survival of Manduca sexta,Manduca sexta,had all died
same,% survival after 5 days,Galleria mellonella,0%
phenol vinyl isocyanide [(E)-4],antibiotic activity (in words),[1],good antibiotic activity
